Assay results taken from US7244850B2, “Benzimidazole derivatives, compositions containing them, preparation thereof and uses thereof” (AstraZeneca AB, priority 2003, dated 2007).

What was measured:
human CB1 receptor = target: T1, human CB1 receptor (Homo sapiens, UniProt P21554); assay: hCB1 receptor binding (3H-CP55,940 displacement); conditions: hCB1 membranes, 3H-CP55,940 radioligand; Ki=IC50/(1+[rad]/Kd); read-out: Ki towards human CB1 receptors
T1 construct: purchased Receptor Biology
Procedure: (§1) Human CB1 receptor from Receptor Biology (hCB1) or human CB2 receptor from BioSignal (hCB2) membranes are thawed at 37° C., passed 3 times through a 25-gauge blunt-end needle, diluted in the cannabinoid binding buffer (50 mM Tris, 2.5 mM EDTA, 5 mM MgCl2, and 0.5 mg/mL BSA fatty acid free, pH 7.4) and aliquots containing the appropriate amount of protein are distributed in 96-well plates. The IC50 of the compounds of the invention at hCB1 and hCB2 are evaluated from 10-point dose-response curves done with ^3H-CP55,940 at 20000 to 25000 dpm per well (0.17-0.21 nM) in a final volume of 300 μl. The total and non-specific binding are determined in the absence and presence of 0.2 μM of HU210 respectively. The plates are vortexed and incubated for 60 minutes at room temperature, filtered through Unifilters GF/B (presoaked in 0.1% polyethyleneimine) with the Tomtec or Packard harvester using 3 mL of wash buffer (50 mM Tris, 5 mM MgCl2, 0.5 mg BSA pH 7.0). The filters are dried for 1 hour at 55° C. The radioactivity (cpm) is counted in a TopCount (Packard) after adding 65 μl/well of MS-20 scintillation liquid.
(§2) Based on the above assays, the dissociation constant (Ki) for a particular compound of the invention towards a particular receptor is determined using the following equation: Ki=IC50/(1+[rad]/Kd), […]

human CB2 receptor = target: T2, human CB2 receptor (Homo sapiens, UniProt P34972); assay: hCB2 receptor binding (3H-CP55,940 displacement)
T2 construct: purchased BioSignal
T2 sequence (P34972 whole entry): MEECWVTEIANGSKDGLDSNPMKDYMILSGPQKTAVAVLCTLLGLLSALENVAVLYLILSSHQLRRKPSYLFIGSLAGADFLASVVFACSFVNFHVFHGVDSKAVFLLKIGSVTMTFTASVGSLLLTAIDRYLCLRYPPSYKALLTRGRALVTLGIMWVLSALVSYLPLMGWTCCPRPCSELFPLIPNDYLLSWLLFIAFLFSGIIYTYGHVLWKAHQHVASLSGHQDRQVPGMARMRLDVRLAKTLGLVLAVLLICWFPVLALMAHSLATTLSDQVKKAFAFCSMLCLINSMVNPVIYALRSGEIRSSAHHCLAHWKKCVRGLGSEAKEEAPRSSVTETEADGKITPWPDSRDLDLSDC
Procedure: as §1, §2

T1 sequence (P21554 whole entry): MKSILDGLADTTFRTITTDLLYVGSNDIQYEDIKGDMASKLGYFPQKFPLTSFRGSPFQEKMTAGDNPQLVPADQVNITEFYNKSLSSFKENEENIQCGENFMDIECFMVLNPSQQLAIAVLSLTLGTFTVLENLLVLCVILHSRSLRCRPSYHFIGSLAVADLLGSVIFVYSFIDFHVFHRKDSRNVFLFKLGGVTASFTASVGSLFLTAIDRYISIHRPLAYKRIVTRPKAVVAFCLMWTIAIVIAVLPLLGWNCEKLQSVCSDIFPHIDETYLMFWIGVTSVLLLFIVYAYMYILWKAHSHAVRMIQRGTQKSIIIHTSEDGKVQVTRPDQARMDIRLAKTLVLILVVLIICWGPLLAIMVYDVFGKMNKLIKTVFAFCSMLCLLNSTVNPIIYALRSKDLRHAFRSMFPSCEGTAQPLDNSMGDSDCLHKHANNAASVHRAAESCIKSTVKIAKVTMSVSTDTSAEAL

CC(C)(C)c1nc2cc(C(=O)N(CC(F)(F)F)CC(F)(F)F)ccc2n1CC1CCCCC1 [compound 1, 2-tert-Butyl-1-(cyclohexylmethyl)-N,N-bis(2,2,2-trifluoroethyl)1H-benzimidazole-5-carboxamide]
Ki (human CB1 receptor): ~34 nM
Ki (human CB2 receptor): ~33 nM
